Where two headings read alike, the source gives them in different places.

In US10421765B2, “Tetrahydropyrido[4,3-d]pyrimidine inhibitors of ATR kinase” (Board of Regents, The University of Texas System, priority 2017, dated 2019) one finds IC50 data, which are given here for 14 compounds.

In test [1] the test system is ATR-driven phosphorylation of Chk1 kinase at Serine 345 in HT-29 colorectal adenocarcinoma cells. Nature of the test: pCHK1 cellular assay (CHK1 p-Ser345 AlphaScreen SureFire). The test is classed as cell-based. The settings on record: Homo sapiens, HT-29, HT-29 cells, 4-nitroquinoline N-oxide 12 uM; read-out: Cell IC50 (pCHK1 IC50 values). The procedure: Inhibitors of ATR kinase are effective at inhibiting the ATR-driven phosphorylation of the downstream target Chk1 kinase at Serine 345, following the addition of 4-nitroquinoline N-oxide, a chemical used to induce DNA damage. Cellular IC50 for the inhibitors of ATR described herein were measured in HT-29 colorectal adenocarcinoma cells. HT-29 cells were routinely maintained in McCoy's 5A media (ATCC Catalog #30-2007) supplemented with 10% fetal bovine serum (Sigma Catalog #F2442) and 1× Penicillin-Streptomycin (Gibco Catalog #15140-122) using a humidified incubator (37° C., 5% CO2, and ambient O2).
In preparation for the CHK1 (p-Ser345) ALPHASCREEN® SUREFIRE® assay, cells were harvested and resuspended in McCoy's 5A media supplemented with 10% fetal bovine serum and 1× Penicillin-Streptomycin. Cells were seeded onto a 384-well black CELLSTAR® Tissue Culture Plate (VWR Catalog #89085-314) at a density of 13,000 cells/well in a volume of 40 uL. The microplate was incubated overnight (approximately 20 hours) at 37° C. with 5% CO2 and ambient O2. Stock solutions of the test compounds were prepared in 100% DMSO (Sigma, Catalog #D2650) and serially diluted 1:3 using 100% DMSO. Compounds were additionally diluted 1:33 in culture medium, and 10 ul/well were transferred to the tissue culture plate. Following the compound addition the microplate was incubated at 37° C. for 90 minutes. 10 uL of 4-nitroquinoline N-oxide (Sigma Aldrich Catalog #N8141-1G) diluted in media (final concentration 12 uM) were added to the tissue culture plate followed by a 120 minute incubation at 37° C. The cells were then washed with PBS and lysed using 10 uL/well SUREFIRE® Kit lysis buffer diluted to 1× in water (PerkinElmer Catalog #TGRCHK1S50K), with mixing on an orbital shaker at 500 rpm for 20 min at RT. Lysates were frozen at −20° C. overnight.
4 uL/well of lysate was then transferred from the tissue culture plate to a 384-well, white, low volume, PROXIPLATE™ (PerkinElmer Catalog #600828). 5 uL/well of the acceptor bead solution, prepared by diluting SUREFIRE® Kit activation buffer (PerkinElmer Catalog #TGRCHK1S50K) and ALPHASCREEN® Protein A acceptor beads (PerkinElmer Catalog #6760617R) in SUREFIRE® Kit reaction buffer (PerkinElmer Catalog #TGRCHK1S50K), were added to the lysates under subdued light and incubated at room temperature for 120 min. 2 uL/well of the donor bead solution, prepared by diluting ALPHASCREEN® Streptavidin donor beads (PerkinElmer Catalog #6760617R) in SUREFIRE® Kit dilution buffer (PerkinElmer Catalog #TGRCHK1S50K), were added under subdued light and incubated at room temperature for an addition 120 minutes. The pCHK1 ALPHASCREEN® signal was measured using an ENVISION® plate reader (PerkinElmer). IC50 values were calculated using a four-parameter logistic curve fit using Genedata Screener software. Percent of control for each compound concentration was calculated by the following formula: 100*(Compound−Min)/(Max−Min) where “Max” is the high control, DMSO, and “Min” is the low control, 5 uM ATR inhibitor.

In a further test the target is ATR/ATRIP complex (Homo sapiens (Human), UniProt Q13535). Nature of the test: ATR/ATRIP enzymatic assay (Caliper-based). The test is classed as biochemical. The settings on record: FAM-labeled RAD17 peptide, ATP. As to the method: Human full-length FLAG-TEV-ATR and His6-ATRIP were co-expressed in HEK293 cells. The cell pellet (20 g) was harvested and lysed in 100 mL of lysis buffer (20 mM Tris-HCl pH 7.5 at room temperature, 137 mM NaCl, 10% glycerol, 1 mM DTT, 1% (v/v) Tween-20, 0.1% (v/v) NP-40, complete protease inhibitor cocktail tablets, phosphatase inhibitor cocktail tablets, 2 mM MgCl2, 0.2 mM EDTA, and 1 mM ATP). After sonication and centrifugation, the supernatant was incubated at 4° C. for 3 hours with 1 mL of anti-FLAG resin (Sigma catalog #A2220) that had been pre-equilibrated in buffer A (20 mM Tris-HCl pH 7.5 at room temperature, 137 mM NaCl, 10% glycerol, 1 mM DTT, 2 mM MgCl2, and 0.2 mM EDTA). The sample was loaded into a column, and then washed with buffer A three times. Protein was subsequently eluted with 2 ml of buffer B (buffer A+200 μg/ml 3×FLAG peptide).
The ability of new chemical matter to inhibit the ATR catalytic activity in this ATR/ATRIP complex was assessed using a Caliper-based assay. A 2x enzyme solution (i.e., 4 nM enzyme) was prepared using 1× Kinase Reaction Buffer (25 mM HEPES pH 8, 0.0055% Brij-35, 10 mM MnCl2, and 1 mM DTT). A 2x peptide solution was then prepared consisting of 10 uM FAM-labeled RAD17 peptide (GL Biochem, catalog #524315) in 1× Kinase Reaction Buffer supplemented with 2 μM ATP. 10 μL of the 2× enzyme solution was transferred to an assay plate containing 60 nL of test compound (from a 3× serial dilution) in 100% DMSO. Following a 30 minute incubation at 28° C., 10 μL of the 2× peptide solution was then transferred to the same assay plate. The reaction was allowed to incubate at 28° C. for 6 hours. After adding […] of stop buffer (100 mM HEPES pH 7.5, 0.015% Brij-35, 0.2% Coating-3 Reagent (PerkinElmer, catalog #PN760050), and 50 mM EDTA), data were collected on a Caliper instrument. Conversion values were converted to inhibition values via the following equation: % inhibition=(max−conversion)/(max−min)*100, whereby “max” corresponds to the DMSO control and “min” corresponds to the low control. IC50 values were calculated using the following equation in XLFit: Y=Bottom+(Top−Bottom)/1+(IC50/X)^HillSlope).

Setting [2] is: read-out: ATR/ATRIP Enzyme IC50.
Setting [3] is: estimated range, read-out: ATR/ATRIP Enzyme IC50 (estimated class).

Chain of ATR/ATRIP complex (Q13535 whole entry): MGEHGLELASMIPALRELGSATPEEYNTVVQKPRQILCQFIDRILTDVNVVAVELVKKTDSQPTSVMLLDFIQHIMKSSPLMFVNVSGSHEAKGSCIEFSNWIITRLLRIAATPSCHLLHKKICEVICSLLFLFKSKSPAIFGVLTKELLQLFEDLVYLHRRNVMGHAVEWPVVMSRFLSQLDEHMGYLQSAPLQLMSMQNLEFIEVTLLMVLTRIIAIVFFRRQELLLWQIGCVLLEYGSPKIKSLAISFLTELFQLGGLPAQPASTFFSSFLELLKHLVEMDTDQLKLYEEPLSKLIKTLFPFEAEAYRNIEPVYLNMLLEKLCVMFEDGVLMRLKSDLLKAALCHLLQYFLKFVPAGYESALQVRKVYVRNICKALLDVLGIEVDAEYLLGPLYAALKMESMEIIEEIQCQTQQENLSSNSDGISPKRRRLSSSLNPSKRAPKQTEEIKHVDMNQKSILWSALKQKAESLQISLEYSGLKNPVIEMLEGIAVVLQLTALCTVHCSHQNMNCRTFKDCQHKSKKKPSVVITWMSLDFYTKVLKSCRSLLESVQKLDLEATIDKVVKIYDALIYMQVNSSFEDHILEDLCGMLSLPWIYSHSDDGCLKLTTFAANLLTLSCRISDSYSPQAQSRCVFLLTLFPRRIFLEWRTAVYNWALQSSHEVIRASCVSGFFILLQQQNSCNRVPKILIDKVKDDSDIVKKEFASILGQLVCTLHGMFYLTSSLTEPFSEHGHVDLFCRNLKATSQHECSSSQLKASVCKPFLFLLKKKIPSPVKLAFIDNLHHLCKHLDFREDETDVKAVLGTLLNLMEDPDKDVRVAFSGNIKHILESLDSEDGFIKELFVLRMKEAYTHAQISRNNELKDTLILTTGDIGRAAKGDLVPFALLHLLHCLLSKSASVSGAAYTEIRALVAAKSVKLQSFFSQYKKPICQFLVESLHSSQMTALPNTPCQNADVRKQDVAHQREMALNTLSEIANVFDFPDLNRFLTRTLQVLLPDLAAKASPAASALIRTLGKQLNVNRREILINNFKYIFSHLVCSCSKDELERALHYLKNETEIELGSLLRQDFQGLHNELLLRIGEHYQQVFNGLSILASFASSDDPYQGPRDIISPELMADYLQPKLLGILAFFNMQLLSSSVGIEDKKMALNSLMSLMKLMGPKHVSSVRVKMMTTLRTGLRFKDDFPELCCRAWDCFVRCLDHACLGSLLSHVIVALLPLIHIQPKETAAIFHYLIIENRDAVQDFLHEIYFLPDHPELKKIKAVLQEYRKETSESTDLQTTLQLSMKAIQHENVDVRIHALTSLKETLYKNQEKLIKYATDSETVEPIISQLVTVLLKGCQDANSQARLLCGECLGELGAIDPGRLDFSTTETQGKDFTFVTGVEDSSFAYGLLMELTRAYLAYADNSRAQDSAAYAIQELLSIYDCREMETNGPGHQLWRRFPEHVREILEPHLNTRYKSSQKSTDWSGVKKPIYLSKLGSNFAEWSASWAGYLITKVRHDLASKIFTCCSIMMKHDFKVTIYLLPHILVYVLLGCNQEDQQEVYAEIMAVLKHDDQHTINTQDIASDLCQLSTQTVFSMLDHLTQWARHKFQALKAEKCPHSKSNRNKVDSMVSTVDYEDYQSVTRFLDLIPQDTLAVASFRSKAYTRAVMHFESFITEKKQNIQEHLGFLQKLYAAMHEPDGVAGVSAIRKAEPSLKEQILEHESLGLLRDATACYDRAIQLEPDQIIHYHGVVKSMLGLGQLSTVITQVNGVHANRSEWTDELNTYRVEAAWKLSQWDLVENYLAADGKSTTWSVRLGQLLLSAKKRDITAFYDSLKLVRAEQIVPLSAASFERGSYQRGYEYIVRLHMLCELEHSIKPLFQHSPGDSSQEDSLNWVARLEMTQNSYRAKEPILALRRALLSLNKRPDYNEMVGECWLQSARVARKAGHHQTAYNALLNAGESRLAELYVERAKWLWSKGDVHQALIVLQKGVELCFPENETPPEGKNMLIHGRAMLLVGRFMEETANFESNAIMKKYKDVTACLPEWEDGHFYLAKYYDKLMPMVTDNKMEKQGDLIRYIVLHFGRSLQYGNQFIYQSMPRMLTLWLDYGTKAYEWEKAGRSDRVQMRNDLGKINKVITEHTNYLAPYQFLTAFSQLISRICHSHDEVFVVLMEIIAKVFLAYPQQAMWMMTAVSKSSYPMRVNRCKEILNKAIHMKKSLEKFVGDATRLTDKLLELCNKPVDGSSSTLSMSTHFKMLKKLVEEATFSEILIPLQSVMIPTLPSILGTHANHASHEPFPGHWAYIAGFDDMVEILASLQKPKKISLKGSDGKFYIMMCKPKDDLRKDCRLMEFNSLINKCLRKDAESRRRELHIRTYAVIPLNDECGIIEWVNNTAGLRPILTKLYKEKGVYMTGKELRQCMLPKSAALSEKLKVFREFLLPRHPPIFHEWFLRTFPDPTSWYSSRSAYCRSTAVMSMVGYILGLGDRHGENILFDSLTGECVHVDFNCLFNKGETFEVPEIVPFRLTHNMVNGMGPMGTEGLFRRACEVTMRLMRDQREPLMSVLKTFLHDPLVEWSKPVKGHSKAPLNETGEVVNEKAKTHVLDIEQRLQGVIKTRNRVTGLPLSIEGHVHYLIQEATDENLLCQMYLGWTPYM
Chain of ATR/ATRIP complex (Q8WXE1 whole entry partner): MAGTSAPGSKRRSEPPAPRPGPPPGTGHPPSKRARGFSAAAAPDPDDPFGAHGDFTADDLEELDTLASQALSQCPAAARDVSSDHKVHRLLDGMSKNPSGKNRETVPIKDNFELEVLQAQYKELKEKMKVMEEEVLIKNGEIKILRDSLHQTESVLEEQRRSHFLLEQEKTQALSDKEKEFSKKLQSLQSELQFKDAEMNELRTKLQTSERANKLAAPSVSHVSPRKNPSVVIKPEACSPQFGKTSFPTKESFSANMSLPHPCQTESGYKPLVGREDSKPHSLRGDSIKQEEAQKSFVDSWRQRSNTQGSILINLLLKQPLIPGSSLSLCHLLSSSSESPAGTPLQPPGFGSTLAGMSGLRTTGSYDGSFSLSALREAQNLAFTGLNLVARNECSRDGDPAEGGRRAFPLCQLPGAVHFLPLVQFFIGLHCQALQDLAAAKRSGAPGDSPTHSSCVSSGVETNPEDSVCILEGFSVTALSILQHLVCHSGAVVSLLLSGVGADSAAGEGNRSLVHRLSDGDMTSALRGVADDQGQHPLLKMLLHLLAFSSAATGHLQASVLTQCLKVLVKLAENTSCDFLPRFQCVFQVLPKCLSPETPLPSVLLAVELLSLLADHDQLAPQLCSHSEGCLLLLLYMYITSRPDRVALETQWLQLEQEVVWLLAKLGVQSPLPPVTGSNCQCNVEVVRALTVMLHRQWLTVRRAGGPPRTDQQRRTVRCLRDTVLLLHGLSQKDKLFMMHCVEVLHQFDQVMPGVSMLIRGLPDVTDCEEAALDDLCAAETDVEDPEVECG

With `C[C@@H]1Cc2ncnc(C3CCN(S(C)(=O)=O)CC3)c2CN1c1ccnc2[nH]ccc12` [Example 6, (R)-7-Methyl-4-(1-(methylsulfonyl)piperidin-4-yl)-6-(1H-pyrrolo[2,3-b]pyridin-4-yl)-5,6,7,8-tetrahydropyrido[4,3-d]pyrimidine bis(trifluoroacetate)], the IC50 in test [1] came to 52 nM; on ATR/ATRIP complex (setting [2]), 499 nM.
The corresponding values for `C[C@@H]1Cc2ncnc(N3CC4CCC(C3)C4NS(C)(=O)=O)c2CN1c1ccnc2[nH]ccc12` (stereo partly drawn) [Example 69, N-(3-((R)-7-methyl-6-(1H-pyrrolo[2,3-b]-pyridin-4-yl)-5,6,7,8-tetrahydropyrido[4,3-d]-pyrimidin-4-yl)-3-aza-bicyclo[3.2.1]octan-8-yl)-methanesulfonamide] are 48 nM and 283 nM.
The corresponding values for `C[C@@H]1Cc2ncnc(C3CCN(S(C)(=O)=O)CC3)c2CN1c1cnc2cn[nH]c2c1` [Example 89, (R)-7-methyl-4-(1-(methylsulfonyl)piperidin-4-yl)-6-(1H-pyrazolo-[4,3-b]pyridin-6-yl)-5,6,7,8-tetrahydro-pyrido[4,3-d]pyrimidine] are 7390 nM and 138 nM.
The corresponding values for `C[C@@H]1Cc2ncnc([C@H]3CCCN(S(C)(=O)=O)C3)c2CN1c1ccnc2[nH]ccc12` [Example 50b, (R)-7-methyl-4-((S)-1-(methylsulfonyl)piperidin-3-yl)-6-(1H-pyrrolo[2,3-b]pyridin-4-yl)-5,6,7,8-tetrahydropyrido[4,3-d]pyrimidine] are 579 nM and 4790 nM.
Take `C[C@@H]1Cc2ncnc(N3CC(C(C)(C)O)C3)c2CN1c1cc(Cl)nc2[nH]ccc12` [Example 33, 2-{1-[(7R)-6-{6-chloro-1H-pyrrolo[2,3-b]pyridin-4-yl}-7-methyl-5H,6H,7H,8H-pyrido[4,3-d]pyrimidin-4-yl]azetidin-3-yl}propan-2-ol]: the IC50 is 15 nM in test [1] and 183 nM at ATR/ATRIP complex (setting [2]).
In the case of `CCC(=O)NC1[C@@H]2CC[C@H]1CN(c1ncnc3c1CN(c1cc(Cl)nc4[nH]ccc14)[C@H](C)C3)C2` (stereo partly drawn) [Example 27, N-[3-[(7R)-6-{6-chloro-1H-pyrrolo[2,3-b]pyridin-4-yl}-7-methyl-5H,6H,7H,8H-pyrido[4,3-d]pyrimidin-4-yl]-3-aza-bicyclo[3.2.1]octan-8-yl}propanamide], the IC50 in test [1] is 38 nM; at ATR/ATRIP complex (setting [3]), 1000 to 10000 nM.
Take `C[C@@H]1Cc2ncnc(N3CCC4(CC3)NC(=O)NC4=O)c2CN1c1cc(Cl)nc2[nH]ccc12` [Example 61, (R)-8-(6-(6-chloro-1H-pyrrolo[2,3-b]pyridin-4-yl)-7-methyl-5,6,7,8-tetrahydropyrido[4,3-d]pyrimidin-4-yl)-1,3,8-triazaspiro[4.5]decane-2,4-dione]: the results for the IC50 (in test [1]; on ATR/ATRIP complex (setting [2])) were 570 nM and 514 nM, respectively.
The corresponding values for `C[C@@H]1Cc2ncnc(N3CCC[C@H](NS(C)(=O)=O)C3)c2CN1c1cc(Cl)nc2[nH]ccc12` [Example 71, N-((S)-1-((R)-6-(6-chloro-1H-pyrrolo[2,3-b]-pyridin-4-yl)-7-methyl-5,6,7,8-tetrahydropyrido-[4,3-d]pyrimidin-4-yl)-piperidin-3-yl)-methanesulfonamide] are 7 nM and 73 nM.
The corresponding values for `C[C@@H]1Cc2ncnc(N3CCC(C)(O)CC3)c2CN1c1cc(Cl)nc2[nH]ccc12` [Example 66, (R)-1-(6-(6-chloro-1H-pyrrolo[2,3-b]pyridin-4-yl)-7-methyl-5,6,7,8-tetrahydropyrido[4,3-d]-pyrimidin-4-yl)-4-methyl-piperidin-4-ol] are 25 nM and 584 nM.
The corresponding values for `C[C@@H]1Cc2ncnc(N3C[C@H]4CC[C@@H](C3)[C@@H]4NS(C)(=O)=O)c2CN1c1cc(Cl)nc2[nH]ccc12` [Example 38, N-((1R,5S)-(8-anti)-3-((R)-6-(6-chloro-1H-pyrrolo[2,3-b]pyridin-4-yl)-7-methyl-5,6,7,8-tetrahydropyrido[4,3-d]pyrimidin-4-yl)-3-azabicyclo[3.2.1]octan-8-yl)methanesulfonamide] are 83 nM and 929 nM.
`C[C@@H]1Cc2ncnc(N3CCC4(CC3)CNC(=O)O4)c2CN1c1cc(Cl)nc2[nH]ccc12` [Example 31, 8-[(7R)-6-{6-chloro-1H-pyrrolo[2,3-b]pyridin-4-yl}-7-methyl-5H,6H,7H,8H-pyrido[4,3-d]pyrimidin-4-yl]-1-oxa-3,8-diazaspiro[4.5]decan-2-one]: the IC50 was found to be 72 nM in test [1] and 434 nM on ATR/ATRIP complex (setting [2]).
In the case of `C[C@@H]1Cc2ncnc(N3CCCN(S(C)(=O)=O)CC3)c2CN1c1ccnc2[nH]ccc12` [Example 19, 1-methanesulfonyl-4-[(7R)-7-methyl-6-{1H-pyrrolo[2,3-b]pyridin-4-yl}-5H,6H,7H,8H-pyrido[4,3-d]pyrimidin-4-yl]-1,4-diazepane], the IC50 is 162 nM in test [1] and 1000 to 10000 nM at ATR/ATRIP complex (setting [3]).
`C[C@@H]1Cc2ncnc(C3CCCN(S(C)(=O)=O)C3)c2CN1c1ccnc2[nH]ccc12` (stereo partly drawn) [Example 16, 1-methanesulfonyl-3-[(7R)-7-methyl-6-{1H-pyrrolo[2,3-b]pyridin-4-yl}-5H,6H,7H,8H-pyrido[4,3-d]pyrimidin-4-yl]piperidine]: the IC50 in test [1] is 140 nM; at ATR/ATRIP complex (setting [2]) it was 3570 nM.
The like results for `C[C@@H]1Cc2ncnc(N3CCCC(C(C)(C)O)C3)c2CN1c1cc(Cl)nc2[nH]ccc12` (stereo in doubt) [Example 45, 2-((R)-1-((R)-6-(6-Chloro-1H-pyrrolo[2,3-b]pyridin-4-yl)-7-methyl-5,6,7,8-tetrahydropyrido[4,3-d]pyrimidin-4-yl)piperidin-3-yl)propan-2-ol] were, in that order, 39 nM and 378 nM.
